The target of one experiment is BTK (Homo sapiens (Human), UniProt Q06187). The experiment can be described thus: In Vitro BTK Kinase Assay: Btk-PolyGAT-LS Assay. The conditions noted are these: BTK enzyme 0.25 nM, ATP 10 μM, polyGAT 100 nM, 30 minutes incubation, TRF readout; read-out: IC50. In kind it is biochemical. The procedure, abridged:
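Human BTK activity was measured with final 10 μM ATP and 100 nM polyGAT substrate in pH 7.5 Tris buffer with 10 mM MgCl2, DTT, Triton X-100 and casein.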

The subject of experiment [1] is CD69 expression on CD19+ B cells in human whole blood stimulated with anti-human IgD. The experiment can be described thus: In Vitro whole blood CD69 Assay. In kind it is cell-based. The conditions noted are these: human heparinized whole blood, anti-human IgD stimulation overnight, percentage of CD19+ B cells expressing CD69, flow cytometry. For orientation: A flow cytometer gives signals particle by particle.

Where [2] appears, read: Homo sapiens, B-cell, read-out: IC50.

SMILES strings stand for the structures. Where two headings read alike, the source gives them in different places.

Usually IC50 stands for the concentration needed to halve the response being measured.

Sequence of BTK (Q06187 whole entry): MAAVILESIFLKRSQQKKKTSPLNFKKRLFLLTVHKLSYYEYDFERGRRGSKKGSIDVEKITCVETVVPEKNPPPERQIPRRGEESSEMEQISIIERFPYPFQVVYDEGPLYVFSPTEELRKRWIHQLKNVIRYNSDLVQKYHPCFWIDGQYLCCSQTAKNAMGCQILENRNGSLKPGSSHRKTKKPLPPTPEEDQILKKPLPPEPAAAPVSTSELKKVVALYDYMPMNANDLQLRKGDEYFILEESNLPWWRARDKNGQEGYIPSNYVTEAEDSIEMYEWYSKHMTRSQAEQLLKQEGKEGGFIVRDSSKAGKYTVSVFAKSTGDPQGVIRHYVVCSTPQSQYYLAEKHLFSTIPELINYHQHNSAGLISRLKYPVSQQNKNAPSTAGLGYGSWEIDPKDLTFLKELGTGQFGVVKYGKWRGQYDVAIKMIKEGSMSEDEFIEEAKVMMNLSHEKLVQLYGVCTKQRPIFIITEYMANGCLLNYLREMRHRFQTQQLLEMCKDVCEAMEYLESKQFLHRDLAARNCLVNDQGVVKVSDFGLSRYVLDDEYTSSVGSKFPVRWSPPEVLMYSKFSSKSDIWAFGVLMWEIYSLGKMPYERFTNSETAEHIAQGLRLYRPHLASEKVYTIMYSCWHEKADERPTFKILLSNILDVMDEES

On to `C[C@@H]1O[C@H]1C(=O)N1CC[C@@H]2[C@H]1C[C@@]2(C)Oc1nc(-c2cnn(C)c2)cn2nccc12` [Example 192, ((1R,5R,6R)-6-methyl-6-((6-(1-methyl-1H-pyrazol-4-yl)pyrazolo[1,5-a]pyrazin-4-yl)oxy)-2-azabicyclo[3.2.0]heptan-2-yl)((2R,3S)-3-methyloxiran-2-yl)methanone], for which the IC50 at BTK was 10 to 1000 nM; in experiment [1] (setting [2]) it was 1000 to 10000 nM.
Taken in the same sequence, the figures for `C=CC(=O)N[C@H]1C[C@@](C)(Oc2nc(-c3cnn(C)c3)cn3ncc(C4CC4)c23)C1` [Example 166, N-((cis)-3-((3-cyclopropyl-6-(1-methyl-1H-pyrazol-4-yl)pyrazolo[1,5-a]pyrazin-4-yl)oxy)-3-methylcyclobutyl)acrylamide] were less than 1 nM and less than 1000 nM.
Taken in the same sequence, the figures for `C=CC(=O)N1CCOC[C@@H](Oc2nc(-c3cnn(C)c3)cn3nccc23)C1` [Example 54, (S)-1-(6-((6-(1-methyl-1H-pyrazol-4-yl)pyrazolo[1,5-a]pyrazin-4-yl)oxy)-1,4-oxazepan-4-yl)prop-2-en-1-one] were 1 to 10 nM and greater than 10000 nM.
On the same counts, the results for `C=CC(=O)N1CCOCC1CCOc1cc(-c2cnn(C)c2)cn2nccc12` (stereo not drawn) [Example 81, 1-(3-(2-((6-(1-methyl-1H-pyrazol-4-yl)pyrazolo[1,5-a]pyridin-4-yl)oxy)ethyl)morpholino)prop-2-en-1-one] are 1 to 10 nM and 1000 to 10000 nM.
On to `C=CC(=O)N[C@H]1C[C@@](C)(Oc2nc(-c3cnn(C)c3)cn3nccc23)C1` [Example 228, N-((1s,3s)-3-methyl-3-((6-(1-methyl-1H-pyrazol-4-yl)pyrazolo[1,5-a]pyrazin-4-yl)oxy)cyclobutyl)acrylamide], for which the IC50 was less than 1 nM on BTK and less than 1000 nM in experiment [1] (setting [2]).
In the case of `C=CS(=O)(=O)N1CCC(CNc2nc(-c3cnn(C)c3)cn3nccc23)CC1` [Example 19, 6-(1-methyl-1H-pyrazol-4-yl)-N-((1-(vinylsulfonyl)piperidin-4-yl)methyl)pyrazolo[1,5-a]pyrazin-4-amine], the IC50 is less than 1 nM on BTK and less than 1000 nM in experiment [1] (setting [2]).
As for `C=CC(=O)N1C[C@H]2C[C@@H](C1)[C@@H]2COc1cc(-c2cnn(C)c2)cn2ncc(F)c12` (single isomer, unassigned) [Example 85, 1-((1R,5S,6r) or (1R,5S,6s)-6-(((3-fluoro-6-(1-methyl-1H-pyrazol-4-yl)pyrazolo[1,5-a]pyridin-4-yl)oxy)methyl)-3-azabicyclo[3.1.1]heptan-3-yl)prop-2-en-1-one], the figures for the half-inhibitory concentration (IC50) (at BTK; in experiment [1] (read-out: IC50)) were less than 1 nM and less than 1000 nM, respectively.
For `C=CC(=O)N(C)[C@H]1C[C@@](C)(Oc2nc(-c3cnn(C)c3)cn3nccc23)[C@H]1C` (single isomer, unassigned) [Example 110], the IC50 is less than 1 nM on BTK and less than 1000 nM in experiment [1] (Homo sapiens, B-cell).
For `C=CS(=O)(=O)N1CCC[C@H](Oc2nc(-c3cnn(C)c3)cn3nccc23)C1` [Example 6, (S)-6-(1-methyl-1H-pyrazol-4-yl)-4-((1-(vinylsulfonyl)piperidin-3-yl)oxy)pyrazolo[1,5-a]pyrazine], the concentration for half-maximal inhibition (IC50) at BTK is 10 to 1000 nM; in experiment [1] (setting [2]) it was greater than 10000 nM.
Take `C=CC(=O)N(C)[C@H]1C[C@](C)(Oc2nc(-c3cnn(C)c3)cn3nccc23)[C@@H]1C` (single isomer, unassigned) [Example 109]: the IC50 on BTK is 1 to 10 nM; in experiment [1] (Homo sapiens, B-cell), less than 1000 nM.
Turning to `C=CC(=O)N1CCC[C@@H](Oc2nc(-c3cnn(C)c3)cn3nc(N)cc23)CC1` [Example 67, 1-[(4R)-4-[2-amino-6-(1-methylpyrazol-4-yl)pyrazolo[1,5-a]pyrazin-4-yl]oxyazepan-1-yl]prop-2-en-1-one], the IC50 is less than 1 nM at BTK and less than 1000 nM in experiment [1] (setting [2]).
Regarding `C=CC(=O)N1CCC[C@@](F)(COc2nc(-c3cnn(C)c3)cn3nccc23)C1` [Example 188, (S)-1-(3-fluoro-3-(((6-(1-methyl-1H-pyrazol-4-yl)pyrazolo[1,5-a]pyrazin-4-yl)oxy)methyl)piperidin-1-yl)prop-2-en-1-one], the IC50 at BTK is 1 to 10 nM; in experiment [1] (setting [2]) it was less than 1000 nM.
In the case of `C=CC(=O)N(C)CCOc1nc(-c2cnn(C)c2)cn2nccc12` [Example 183, N-methyl-N-(3-((6-(1-methyl-1H-pyrazol-4-yl)pyrazolo[1,5-a]pyrazin-4-yl)oxy)ethyl)acrylamide], the half-inhibitory concentration (IC50) at BTK is 1 to 10 nM; in experiment [1] (setting [2]), 1000 to 10000 nM.
For the compound `C=CC(=O)N1CCC(C)(COc2nc(-c3cnn(C)c3)cn3nccc23)CC1` [Example 189, 1-(4-methyl-4-(((6-(1-methyl-1H-pyrazol-4-yl)pyrazolo[1,5-a]pyrazin-4-yl)oxy)methyl)piperidin-1-yl)prop-2-en-1-one], the IC50 on BTK lay within 1 to 10 nM; in experiment [1] (setting [2]), 1000 to 10000 nM.
Taken in the same sequence, the figures for `C=CC(=O)N(CC(F)F)[C@H]1C[C@@](C)(Oc2nc(-c3cnn(C)c3)cn3nccc23)C1` [Example 226, N-(2,2-difluoroethyl)-N-((1s,3s)-3-methyl-3-((6-(1-methyl-1H-pyrazol-4-yl)pyrazolo[1,5-a]pyrazin-4-yl)oxy)cyclobutyl)acrylamide] were less than 1 nM and less than 1000 nM.
Taken in the same sequence, the figures for `C=CC(=O)N1[C@H]2CC[C@@H]1[C@H](Oc1nc(-c3cnn(C)c3)cn3nccc13)C2` [Example 234, 1-((1R,2R,4S)-2-((6-(1-methyl-1H-pyrazol-4-yl)pyrazolo[1,5-a]pyrazin-4-yl)oxy)-7-azabicyclo[2.2.1]heptan-7-yl)prop-2-en-1-one] were less than 1 nM and 1000 to 10000 nM.
For `C=CC(=O)N1CC[C@@H]2[C@H](Oc3nc(-c4cnn(C)c4)cn4nccc34)C(C)(C)[C@@H]21` [Example 172, 1-((1R,5S,6S)-7,7-dimethyl-6-((6-(1-methyl-1H-pyrazol-4-yl)pyrazolo[1,5-a]pyrazin-4-yl)oxy)-2-azabicyclo[3.2.0]heptan-2-yl)prop-2-en-1-one], the IC50 is less than 1 nM at BTK and 1000 to 10000 nM in experiment [1] (setting [2]).
As for `C=CC(=O)N1CCC[C@@H](Oc2nc(-c3cn(C)nc3C)cn3ncnc23)CC1` [Example 70, 1-[(4R)-4-[[6-(1,3-dimethylpyrazol-4-yl)-[1,2,4]triazolo[1,5-a]pyrazin-8-yl]oxy]azepan-1-yl]prop-2-en-1-one], the IC50 on BTK fell in the range of 1 to 10 nM; in experiment [1] (setting [2]), 1000 to 10000 nM.
On the same counts, the results for `CC#CC(=O)N[C@H]1CCC[C@@H](Oc2nc(-c3cnn(C)c3)cn3nccc23)C1` [Example 179, N-((1S,3R)-3-((6-(1-methyl-1H-pyrazol-4-yl)pyrazolo[1,5-a]pyrazin-4-yl)oxy)cyclohexyl)but-2-ynamide] are less than 1 nM and less than 1000 nM.
In the case of `C=CC(=O)N(C)[C@H]1C[C@H](Oc2nc(-c3cnn(C)c3)cn3ncc(C)c23)C1` [Example 60, N-methyl-N-((trans)-3-((3-methyl-6-(1-methyl-1H-pyrazol-4-yl)pyrazolo[1,5-a]pyrazin-4-yl)oxy)cyclobutyl)acrylamide], the IC50 at BTK was less than 1 nM; in experiment [1] (setting [2]) it was greater than 10000 nM.
On the same counts, the results for `CC#CC(=O)N[C@H]1CC[C@@H](Oc2cc(-c3cnn(C)c3)cn3nccc23)C1` [Example 164, N-[(1S,3R)-3-[6-(1-methylpyrazol-4-yl)pyrazolo[1,5-a]pyridin-4-yl]oxycyclopentyl]but-2-ynamide] are 1 to 10 nM and 1000 to 10000 nM.

Source of the values: patent US20240083900A1, “PYRAZOLO[1,5-A]PYRAZINE DERIVATIVES AS BTK INHIBITORS” (BIOGEN MA INC., priority 2020, published 2024).
